Key:
Assay in all cases: Cell panel screen (CellTiter-Glo)
Format in all cases: cell-based, human
A498 = A498 (listed under Lung), 20 micromolar, 72 hrs
Summary of the method: (§1)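 Growth inhibition (%) was determined from luminescence proportional to cellular ATP after cells had been incubated with compound (20 μM final) for 72 h at 37°C, with matched DMSO controls and cell-free wells defining the range.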

A704 = A704 (Kidney), 20 micromolar, 72 hrs
Summary of the method: as §1

BT-474 = BT-474 (Breast), 20 micromolar, 72 hrs
Summary of the method: as §1

BT-549 = BT-549 (Breast), 20 micromolar, 72 hrs
Summary of the method: as §1

Bel-7402 = Bel-7402 (Liver), 20 micromolar, 72 hrs
Summary of the method: as §1

C3A = C3A (Liver), 20 micromolar, 72 hrs
Summary of the method: as §1

C8166 = C8166 (Leukemia), 20 micromolar, 72 hrs
Summary of the method: as §1

CCF-STTG1 = CCF-STTG1 (Brain), 20 micromolar, 72 hrs
Summary of the method: as §1

CW-2 = CW-2 (Colon), 20 micromolar, 72 hrs
Summary of the method: as §1

ChaGo-K-1 = ChaGo-K-1 (Lung), 20 micromolar, 72 hrs
Summary of the method: as §1

Colo 205 = conditions: Colo 205, 20 micromolar, 72 hrs
Summary of the method: as §1

HCC1395 = HCC1395 (Breast), 20 micromolar, 72 hrs
Summary of the method: as §1

HCC1569 = HCC1569 (Breast), 20 micromolar, 72 hrs
Summary of the method: as §1

HCC1599 = HCC1599 (Breast), 20 micromolar, 72 hrs
Summary of the method: as §1

HCC1937 = HCC1937 (Breast), 20 micromolar, 72 hrs
Summary of the method: as §1

HEC-1-A = HEC-1-A (Uterus), 20 micromolar, 72 hrs
Summary of the method: as §1

HGC-27 = HGC-27 (Stomach), 20 micromolar, 72 hrs
Summary of the method: as §1

HPAF-II = HPAF-II (Pancreas), 20 micromolar, 72 hrs
Summary of the method: as §1

HT-1197 = HT-1197 (Urinary bladder), 20 micromolar, 72 hrs
Summary of the method: as §1

J82 = J82 (Urinary bladder), 20 micromolar, 72 hrs
Summary of the method: as §1

M059J = M059J (Brain), 20 micromolar, 72 hrs
Summary of the method: as §1

MSTO-211-H = MSTO-211-H (Lung), 20 micromolar, 72 hrs
Summary of the method: as §1

NCI-H1623 = NCI-H1623 (Lung), 20 micromolar, 72 hrs
Summary of the method: as §1

NCI-H1694 = NCI-H1694 (Lung), 20 micromolar, 72 hrs
Summary of the method: as §1

NCI-H1770 = NCI-H1770 (Lung), 20 micromolar, 72 hrs
Summary of the method: as §1

NCI-H2347 = NCI-H2347 (Lung), 20 micromolar, 72 hrs
Summary of the method: as §1

NCI-H2405 = NCI-H2405 (Lung), 20 micromolar, 72 hrs
Summary of the method: as §1

NCI-H28 = NCI-H28 (Lung), 20 micromolar, 72 hrs
Summary of the method: as §1

NCI-H524 = NCI-H524 (Lung), 20 micromolar, 72 hrs
Summary of the method: as §1

Panc 03.27 = Panc 03.27 (Pancreas), 20 micromolar, 72 hrs
Summary of the method: as §1

RL95 = RL95 (Uterus), 20 micromolar, 72 hrs
Summary of the method: as §1

SW13 = SW13 (Adrenal gland), 20 micromolar, 72 hrs
Summary of the method: as §1

T47D = T47D (Breast), 20 micromolar, 72 hrs
Summary of the method: as §1

T98G = T98G (Brain), 20 micromolar, 72 hrs
Summary of the method: as §1

TCCSUP = TCCSUP (Urinary bladder), 20 micromolar, 72 hrs
Summary of the method: as §1

ZR-75-30 = ZR-75-30 (Breast), 20 micromolar, 72 hrs
Summary of the method: as §1

[1] = Homo sapiens, read-out: Percent Inhibition

CC(C)=CCc1c(O)cc2oc3c(CC=C(C)C)c(O)c(O)c(CC=C(C)C)c3c(=O)c2c1O [bn-1, Garcinone E]
inhibition at 20 µM (A498; [1]): 98% | inhibition at 20 µM (A704; [1]): 98% | inhibition at 20 µM (BT-474; [1]): 87% | inhibition at 20 µM (BT-549; [1]): 98% | inhibition at 20 µM (Bel-7402; [1]): 98% | inhibition at 20 µM (C3A; [1]): 90% | inhibition at 20 µM (C8166; [1]): 99% | inhibition at 20 µM (CCF-STTG1; [1]): 89% | inhibition at 20 µM (CW-2; [1]): 99% | inhibition at 20 µM (ChaGo-K-1; [1]): 99% | inhibition at 20 µM (Colo 205; [1]): 98% | inhibition at 20 µM (HCC1395; [1]): 100% | inhibition at 20 µM (HCC1569; [1]): 96% | inhibition at 20 µM (HCC1599; [1]): 98% | inhibition at 20 µM (HCC1937; [1]): 97% | inhibition at 20 µM (HEC-1-A; [1]): 87% | inhibition at 20 µM (HGC-27; [1]): 99% | inhibition at 20 µM (HPAF-II; [1]): 90% | inhibition at 20 µM (HT-1197; Homo sapiens, HT1197, read-out: Percent Inhibition): 97% | inhibition at 20 µM (J82; [1]): 98% | inhibition at 20 µM (M059J; [1]): 95% | inhibition at 20 µM (MSTO-211-H; [1]): 98% | inhibition at 20 µM (NCI-H1623; [1]): 91% | inhibition at 20 µM (NCI-H1694; [1]): 100% | inhibition at 20 µM (NCI-H1770; [1]): 93% | inhibition at 20 µM (NCI-H2347; [1]): 79% | inhibition at 20 µM (NCI-H2405; [1]): 93% | inhibition at 20 µM (NCI-H28; [1]): 95% | inhibition at 20 µM (NCI-H524; [1]): 100% | inhibition at 20 µM (Panc 03.27; Homo sapiens, PANC-03-27, read-out: Percent Inhibition): 90% | inhibition at 20 µM (RL95; [1]): 99% | inhibition at 20 µM (SW13; [1]): 97% | inhibition at 20 µM (T47D; [1]): 82% | inhibition at 20 µM (T98G; [1]): 100% | inhibition at 20 µM (TCCSUP; Homo sapiens, TCC-SUP, read-out: Percent Inhibition): 97% | inhibition at 20 µM (ZR-75-30; [1]): 99%

CC(C)=CCc1c2c(c(O)c3c1O[C@]14C(=C[C@@H]5C[C@H]1C(C)(C)O[C@@]4(C/C=C(\C)CO)C5=O)C3=O)C=CC(C)(C)O2 [GB18]
Percent Inhibition (A498): 93% | Percent Inhibition (A704): 99% | Percent Inhibition (BT-474): 99% | Percent Inhibition (BT-549): 99% | Percent Inhibition (Bel-7402): 99% | Percent Inhibition (C3A): 99% | Percent Inhibition (C8166): 99% | Percent Inhibition (CCF-STTG1): 99% | Percent Inhibition (CW-2): 99% | Percent Inhibition (ChaGo-K-1): 99% | Percent Inhibition (Colo 205): 99% | Percent Inhibition (HCC1395): 99% | Percent Inhibition (HCC1569): 99% | Percent Inhibition (HCC1599): 99% | Percent Inhibition (HCC1937): 98% | Percent Inhibition (HEC-1-A): 99% | Percent Inhibition (HGC-27): 99% | Percent Inhibition (HPAF-II): 99% | Percent Inhibition (HT-1197): 99% | Percent Inhibition (J82): 99% | Percent Inhibition (M059J): 99% | Percent Inhibition (MSTO-211-H): 99% | Percent Inhibition (NCI-H1623): 99% | Percent Inhibition (NCI-H1694): 99% | Percent Inhibition (NCI-H1770): 99% | Percent Inhibition (NCI-H2347): 97% | Percent Inhibition (NCI-H2405): 99% | Percent Inhibition (NCI-H28): 98% | Percent Inhibition (NCI-H524): 100% | Percent Inhibition (Panc 03.27): 99% | Percent Inhibition (RL95): 99% | Percent Inhibition (SW13): 99% | Percent Inhibition (T47D): 99% | Percent Inhibition (T98G): 99% | Percent Inhibition (TCCSUP): 99% | Percent Inhibition (ZR-75-30): 99%

— PMC4450297, “Screening Active Compounds from Garcinia Species Native to China Reveals Novel Compounds Targeting the STAT/JAK Signaling Pathway” (BioMed Research International, 2015)
